Laboratory results reported in patent publication US8391959B2, “Composition for improving efficiency of drug delivery” (Tel HaShomer Medical Research Infrastructure and Services …, priority 2004, dated 2013).

Test system: striatum of normal Sprague-Dawley (SD) rats
Assay: Cytotoxic tissue response after CED in rat striatum, T2-weighted and diffusion-weighted MRI 24 hours post treatment
Experimental: The resultant solution was infused into the striatum of normal Sprague-Dawley (SD) rats (males, 250-300 grams). T1-weighted MR images were acquired immediately post treatment to assess the extent of convection. Additionally, T2-weighted and diffusion-weighted MR images were acquired 24 hours post treatment to assess the response of the tissue and its correlation to the extent of convection.
In order to obtain a wide range in volumes of distribution, the infusion times were varied between 17 to 60 minutes. 13 rats were treated with Carboplatin (4 mg/ml, 17 minutes infusion). In order to obtain a wide range in volumes of distributions, in 6 out of those, the composition viscosity was increased by adding sucrose to the solution prior to infusion (Carboplatin 4 mg/ml, sucrose concentration-12%).
Early assessment of tissue response was performed using diffusion-weighted and T2-weighted MR images. The diffusion-weighted images were obtained by acquiring conventional T2-weighted images with the addition of diffusion-weighting gradients that filter out the signal from high mobility water molecules and sensitize the MR images to molecular diffusion/mobility [Stejskal et al. supra]. Regions of accumulated liquids or severe necrosis appear dark in diffusion-weighted MRI, while regions of slow water accumulation, such as in the case of intracellular water accumulation or inflammation, appear brighter.
The diffusion-weighted and T2-weighted MR images were obtained by a General Electric™ 3.0 T MRI machine with 10.4M 1× operating system, gradients intensity of up to 4.3 Gauss/cm and line scan diffusion-weighted imaging [Gudbjartsson et al., “Line scan diffusion imaging”, Magn. Reson. Med. 36:509-519, 1996] acquisition software package. Specially designed animal volume coils of 5 cm diameter were used for data acquisition.
The T2-weighted fast spin echo (FSE) MR images were acquired with: 256×128 matrix, FOV=12×9 cm^2, TR=3000 ms, TE=90 ms, and 2 mm slices with 0.5 mm gap. […]

SMILES: N.N.O=C([O-])C1(C(=O)[O-])CCC1.[Pt+2] [Carboplatin]
- enhancement in diffusion-weighted MR images (cases of efficient convection, 24 hours post treatment): significant enhancement

SMILES: CC(=O)O[C@H]1C(=O)[C@@]2(C)[C@H]([C@H](OC(=O)c3ccccc3)[C@]3(O)C[C@H](OC(=O)[C@H](O)[C@@H](NC(=O)c4ccccc4)c4ccccc4)C(C)=C1C3(C)C)[C@]1(OC(C)=O)CO[C@@H]1C[C@@H]2O [Taxol®, Taxol]
- histology of en block-resected lesion from rat brain (rat, in vivo): Severe damage covering most of the striatum is seen with widespread necrosis and early gliotic changes
- tissue toxicity (rat, in vivo): severe tissue toxicity
